US20250268474A1, “Systems and Methods for Detecting Fibrosis” (3HELIX, INC., priority 2021, published 2025)
Where no end group is shown, it is not given here. [ ]: non-standard residue; d: D form. Pro(cis-4-F) = O=C(O)[C@@H]1C[C@H](F)CN1; Hyp = O=C(O)[C@@H]1C[C@@H](O)CN1

System: damaged/denatured collagen
Test: LCHP in vivo imaging (fundus / ICG angiography) in CNV mice
Conditions: spontaneous CNV (JR5558), FIG. 6A; 1 nmol per animal, tail vein

“sulfo-Cy7.5-GGG-OfGGOfGfGfOfOGOfGOOfGGOOff ({sulfo‑Cy7.5}-GGG[Hyp][Pro(cis-4-F)]GG[Hyp][Pro(cis-4-F)]G[Pro(cis-4-F)]G[Pro(cis-4-F)][Hyp][Pro(cis-4-F)][Hyp]G[Hyp][Pro(cis-4-F)]G[Hyp][Hyp][Pro(cis-4-F)]GG[Hyp][Hyp][Pro(cis-4-F)][Pro(cis-4-F)]; not fully specified; printed as sulfo-Cy7.5-GGG-OfGGOfGfGfOfOGOfGOOfGGOOff) [scrambled sCy7.5-CHP]” was tested, and the “signal in IR, FA and ICGA imaging” value was “no significant signal was detected”.
